Assay results as given in US20240417405A1, “Substituted Spiro Derivatives” (Janssen Pharmaceutica NV, priority 2021, published 2024).
Like-named read-outs stand apart in the source and are kept apart here.

Legend:
MOLM14 cells = assay: Proliferation assay, spheroid-like growth, MOLM14 (MLL-AF9 rearranged); format: cell-based, human; details: 8 days, confluence as measure of spheroid size, read-out: spheroid assay_OneTime MOLM14 IC50
Summary of the method: (§1)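 MOLM14 (MLL-AF9) or KO-52 (MLL wildtype) cells were grown in ultra-low attachment round-bottom wells with compound (0.3% DMSO) for 8 days at 37 °C. Spheroid confluence was imaged live on day 8, normalized to DMSO and a high-dose reference/staurosporin control, and absolute IC50 fitted with variable slope.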

KO-52 cells = assay: Proliferation assay, spheroid-like growth, KO-52 (MLL wildtype control cell line); format: cell-based, human; details: Homo sapiens, 192 h, KO-52 control cells, 8 days, confluence as measure of spheroid size; read-out: spheroid assay_OneTime KO-52 IC50
Summary of the method: as §1

[1] = target: T1, menin/MLL (terbium chelate-labeled menin, FITC-MBM1 peptide) (Homo sapiens, UniProt O00255, T541A); assay: Menin/MLL homogenous time-resolved fluorescence (HTRF) assay; format: binding; details: 30 min incubation
T1 construct: Menin (a.a 1-610-6xhis tag)
T1 sequence (O00255 with tags, fused parts or gaps T541A): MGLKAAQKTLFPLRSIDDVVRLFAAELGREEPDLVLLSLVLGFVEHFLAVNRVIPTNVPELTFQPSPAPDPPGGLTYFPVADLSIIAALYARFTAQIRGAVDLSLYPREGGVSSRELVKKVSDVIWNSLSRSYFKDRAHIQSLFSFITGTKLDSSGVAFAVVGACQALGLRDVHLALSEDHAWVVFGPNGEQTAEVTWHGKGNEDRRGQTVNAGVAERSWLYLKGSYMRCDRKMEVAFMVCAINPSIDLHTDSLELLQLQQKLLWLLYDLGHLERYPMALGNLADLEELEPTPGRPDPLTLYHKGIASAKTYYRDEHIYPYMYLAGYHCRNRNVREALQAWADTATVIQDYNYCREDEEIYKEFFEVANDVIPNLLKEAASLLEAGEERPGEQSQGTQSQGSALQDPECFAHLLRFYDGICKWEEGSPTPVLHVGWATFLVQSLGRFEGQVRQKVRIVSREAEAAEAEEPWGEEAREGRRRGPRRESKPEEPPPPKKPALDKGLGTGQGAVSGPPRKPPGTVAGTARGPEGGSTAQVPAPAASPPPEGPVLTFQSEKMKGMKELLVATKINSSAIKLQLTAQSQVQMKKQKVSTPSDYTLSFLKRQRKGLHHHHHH
Summary of the method: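 Read-out: TR-FRET ratio (FITC 520 nm / terbium 490 nm, ex. 337 nm) after 15 min with 75 nM FITC-MBM1 peptide. Test compound first sat 30 min with 200 pM Tb-menin 1-610-His, 0.5% DMSO, pH 7.5 Tris buffer. IC50 by Hill fit; values under 0.1 nM reported as 0.1 nM.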

Row | SMILES | IC50 (MOLM14 cells; Homo sapiens, MOLM-14, 192 h) | IC50 (KO-52 cells) | IC50 [1] | IC50 (MOLM14 cells)
1 | CC(=O)N1CCC12CN([C@H]1C[C@@H]([C@@H](C(C)C)N3CC4(CCN(c5ncnnc5Oc5ccc(F)cc5-c5cncnc5C5CC5)C4)C3)C1)C2 (single isomer, unassigned) [Compound 172] | 22 nM | 10100 nM | 0.1 nM | 
2 | CC(=O)N1CCCC12CN([C@H]1C[C@@H]([C@@H](C(C)C)N3CC4(CCN(c5ncnnc5Oc5ccc(F)cc5-c5cncnc5C5CC5)C4)C3)C1)C2 (single isomer, unassigned) [Compound 174] | 9 nM | 7400 nM | 0.1 nM | 
3 | CC(C)[C@@H]([C@H]1C[C@@H](N2CC[C@@H](F)C2)C1)N1CC2(CCN(c3ncnnc3Oc3ccc(F)cc3-c3nnccc3C3CC3)C2)C1 (single isomer, unassigned) [Compound 262] | 5 nM | 1280 nM | 0.1 nM | 
4 | CC(C)C([C@H]1C[C@H](N2CC3(COC3)C2)C1)N1CC2(CCN(c3ncnnc3Oc3ccc(F)cc3-c3cncnc3C3CC3)C2)C1 (single isomer, unassigned) [Compound 21] | 52 nM | 4610 nM | 0.1 nM | 
5 | CC(=O)N1CC2CN([C@H]3C[C@@H]([C@H](C(C)C)N4CC5(CCN(c6ncnnc6Oc6ccc(F)cc6-c6cnc(C)nc6C6CC6)C5)C4)C3)CC2C1 (stereo partly drawn) [Compound 377] |  | 4840 nM | 0.137 nM | 2.7 nM
6 | CC(=O)N1CCC2C1CCN2[C@H]1C[C@@H]([C@@H](C(C)C)N2CC3(CCN(c4ncnnc4Oc4ccc(F)cc4-c4cncnc4C4CC4)C3)C2)C1 (single isomer, unassigned) [Compound 54] |  | 4960 nM | 0.3 nM | 28 nM
7 | CC(C)C([C@H]1C[C@@H](N2CCC(C#N)CC2)C1)N1CC2(CCN(c3ncnnc3Oc3ccc(F)cc3-c3cncnc3C3CC3)C2)C1 (stereo partly drawn) [Compound 122] | 55 nM | > 15000 nM | 0.2 nM | 
8 | CC(C)[C@H]([C@H]1C[C@@H](N2CC3(CCO3)C2)C1)N1CC2(CCN(c3ncnnc3Oc3ccc(F)cc3-c3cncnc3C3CC3)C2)C1 (single isomer, unassigned) [Compound 145] | 6 nM | 3580 nM | 0.2 nM | 
9 | CC(C)[C@H]([C@H]1C[C@@H](N2CC[C@H](O)C23CC3)C1)N1CC2(CCN(c3ncnnc3Oc3ccc(F)cc3-c3cncnc3C3CC3)C2)C1 (single isomer, unassigned) [Compound 41] | 12 nM | > 15000 nM | 0.2 nM | 
10 | CC(C)[C@H]([C@H]1C[C@@H](N2C[C@H]3COC[C@H]3C2)C1)N1CC2(CCN(c3ncnnc3Oc3ccc(F)cc3-c3ncccc3C3CC3)C2)C1 (single isomer, unassigned) [Compound 149] | < 2 nM | 510 nM | 0.1 nM | 
11 | CC(C)[C@@H]([C@H]1C[C@@H](N2CCC3(COC3)C2)C1)N1CC2(CCN(c3ncnnc3Oc3ccc(F)cc3-c3nnccc3C3CC3)C2)C1 (single isomer, unassigned) [Compound 254] | 16 nM | > 15000 nM | 0.1 nM | 
12 | CC(C)[C@H]([C@H]1C[C@@H](NC2CC2)C1)N1CC2(CCN(c3ncnnc3Oc3ccc(F)cc3-c3ncccc3C3CC3)C2)C1 (single isomer, unassigned) [Compound 148] | 3 nM | 610 nM | 0.2 nM | 
13 | CC(C)[C@@H]([C@H]1C[C@@H](N2CC[C@@H](S(C)(=O)=O)C2)C1)N1CC2(CCN(c3ncnnc3Oc3ccc(F)cc3-c3ncccc3C3CC3)C2)C1 (single isomer, unassigned) [Compound 287] | > 940 nM | > 15000 nM | 70.3 nM | 
14 | CC(C)[C@H]([C@H]1C[C@H](N2CC3(CCO3)C2)C1)N1CC2(CCN(c3ncnnc3Oc3ccc(F)cc3-c3cncnc3C3CC3)C2)C1 (single isomer, unassigned) [Compound 146] | 160 nM | 6600 nM | 0.2 nM | 
15 | CC(C)[C@@H]([C@H]1C[C@]2(COC(=O)N2)C1)N1CC2(CCN(c3ncnnc3Oc3ccc(F)cc3-c3cncnc3C3CC3)C2)C1 (single isomer, unassigned) [Compound 320] | 28 nM | 4600 nM | 0.1 nM | 
16 | CC(C)[C@H]([C@H]1C[C@H](N2CC3(COC3)C2)C1)N1CC2(CCN(c3ncnnc3Oc3ccc(F)cc3-c3ncc(C#N)cc3C3CC3)C2)C1 (single isomer, unassigned) [Compound 95] | 210 nM | 11400 nM | 0.1 nM | 
17 | CO[C@H]1CCN([C@H]2C[C@@H](C(C(C)C)N3CC4(CCN(c5ncnnc5Oc5ccc(F)cc5-c5nnccc5C5CC5)C4)C3)C2)C1 (single isomer, unassigned) [Compound 331] | 3 nM | 2850 nM | 0.2 nM | 
18 | CC(C)[C@H]([C@H]1C[C@@H](N2CC[C@H](S(C)(=O)=O)C2)C1)N1CC2(CCN(c3ncnnc3Oc3ccc(F)cc3-c3ncccc3C3CC3)C2)C1 (single isomer, unassigned) [Compound 286] | 120 nM | 12200 nM | 0.3 nM | 
19 | CC(C)C([C@H]1C[C@@H](N2CCC3(CCO3)CC2)C1)N1CC2(CCN(c3ncnnc3Oc3ccc(F)cc3-c3cncnc3C3CC3)C2)C1 (stereo partly drawn) [Compound 327] | 5 nM | > 15000 nM | 0.2 nM | 
20 | CC(=O)N[C@H]1C[C@@H]([C@H](C(C)C)N2CC3(CCN(c4ncnnc4Oc4ccc(F)cc4-c4ncncc4C4CC4)C3)C2)C1 (single isomer, unassigned) [Compound 181] | > 940 nM | > 15000 nM | 96.9 nM | 
21 | CC(C)[C@H]([C@H]1C[C@@H](N2CCN(C(=O)N(C)C)CC2)C1)N1CC2(CCN(c3ncnnc3Oc3ccc(F)cc3-c3cncnc3C3CC3)C2)C1 (single isomer, unassigned) [Compound 36] | 10 nM | 3050 nM | 0.2 nM | 
22 | CC(C)[C@H]([C@H]1C[C@H](N2CC3(COC3)C2)C1)N1CC2(CCN(c3ncnnc3Oc3ccc(F)cc3-c3cnncc3C3CC3)C2)C1 (single isomer, unassigned) [Compound 83] | 980 nM | > 15000 nM | 1.6 nM | 
23 | CO[C@@H]1CCN([C@H]2C[C@@H]([C@H](C(C)C)N3CC4(CCN(c5ncnnc5Oc5ccc(F)cc5-c5nnccc5C5CC5)C4)C3)C2)C1 (single isomer, unassigned) [Compound 257] | 6 nM | > 15000 nM | 0.1 nM | 
24 | CC(C)[C@H]([C@H]1C[C@@H](N2CC(O)C3(CC3)C2)C1)N1CC2(CCN(c3ncnnc3Oc3ccc(F)cc3-c3cncnc3C3CC3)C2)C1 (mixture of isomers) [Compound 42] | 4 nM | 2120 nM | 0.1 nM | 
25 | CC(C)[C@H]([C@H]1C[C@@H](N2CCC(O)CC2)C1)N1CC2(CCN(c3ncnnc3Oc3ccc(F)cc3-c3cncnc3C3CC3)C2)C1 (single isomer, unassigned) [Compound 22] | 3 nM | 10800 nM | 0.1 nM | 
